Assay results: article PMC4457358, “Structure–activity studies in the development of a hydrazone based inhibitor of adipose-triglyceride lipase (ATGL)” (Bioorganic & Medicinal Chemistry, 2015)

Experiments:
murine ATGL = target: T1, murine ATGL (Mus musculus, UniProt Q8BJ56); test: Triglyceride hydrolase activity assay with COS7-cell lysate overexpressing recombinant murine ATGL, radiolabelled triolein substrate; assay type: biochemical; set-up: IC50 (%): unit not given here; settings: for inhibition at 200 µM: 1 h, read-out: I200 (%); for inhibition at 200 µM / I200 (%): ATGL-inhibition efficiency at 200 μM inhibitor; for IC50 / biological activity against ATGL (in words): COS7-cell lysate overexpressing murine ATGL; for IC50 (%): COS7-cell lysate overexpressing recombinant murine ATGL, increasing inhibitor concentrations;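 as to all read-outs here: radioactivity from the triolein substrate quantified by liquid scintillation counting after phase separation, reflecting triglyceride hydrolase activity of murine ATGL in lysates of transfected COS-7 cells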
T1 construct: expressed in transfected cells; host or cells: COS-7 (ATCC CRL-1651), transient transfection with Metafectene; crude lysate after 1000 x g spin
T1 sequence (Q8BJ56 1-486): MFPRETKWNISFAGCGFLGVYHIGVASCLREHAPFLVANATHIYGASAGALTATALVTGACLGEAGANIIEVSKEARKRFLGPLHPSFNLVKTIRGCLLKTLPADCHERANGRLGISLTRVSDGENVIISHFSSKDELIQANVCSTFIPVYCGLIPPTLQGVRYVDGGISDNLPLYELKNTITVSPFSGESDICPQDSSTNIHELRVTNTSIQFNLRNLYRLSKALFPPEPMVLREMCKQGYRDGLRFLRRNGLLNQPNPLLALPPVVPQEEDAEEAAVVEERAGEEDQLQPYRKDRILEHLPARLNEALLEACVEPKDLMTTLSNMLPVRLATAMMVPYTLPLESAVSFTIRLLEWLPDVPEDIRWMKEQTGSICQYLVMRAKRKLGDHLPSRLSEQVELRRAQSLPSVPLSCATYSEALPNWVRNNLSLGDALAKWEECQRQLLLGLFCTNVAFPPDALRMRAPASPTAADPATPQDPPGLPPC

Compound: COc1ccc(/C=N/N2CCN(c3ccccc3)CC2)cc1OC [Compound 1b, (E)-N-(3,4-Dimethoxybenzylidene)-4-phenylpiperazin-1-amine]
- inhibition at 200 µM (murine ATGL): 65%
- melting point: 153 to 154 °C

Compound: COc1ccc(/C=N/N2CCN(c3ccccc3)CC2)cc1O [Compound 1c, (E)-2-Methoxy-5-((4-phenylpiperazin-1-ylimino)methyl)phenol]
- inhibition at 200 µM (murine ATGL): 56%
- melting point: 180 °C (dec.)

Compound: COc1cc(/C=N/N2CCN(c3ccccc3)CC2)ccc1O [Compound 1d, (E)-2-Methoxy-4-((4-phenylpiperazin-1-ylimino)methyl)phenol]
- inhibition at 200 µM (murine ATGL): 82%

Compound: Oc1cccc(/C=N/N2CCN(c3ccccc3)CC2)c1 [Compound 1e, (E)-3-((4-Phenylpiperazin-1-ylimino)methyl)phenol]
- inhibition at 200 µM (murine ATGL): 71%
- melting point: 190 °C (dec.)

Compound: Oc1ccccc1/C=N/N1CCN(c2ccccc2)CC1 [Compound 1f, (E)-2-((4-Phenylpiperazin-1-ylimino)methyl)phenol]
- inhibition at 200 µM (murine ATGL): 64%
- melting point: 138 to 142 °C

Compound: Oc1ccc(/C=N/N2CCN(c3ccccc3)CC2)cc1 [Compound 1g, (E)-4-((4-Phenylpiperazin-1-ylimino)methyl)phenol]
- inhibition at 200 µM (murine ATGL): 85%
- melting point: 192 °C (dec.)

Compound: COc1cc(OC)c(OC)cc1/C=N/N1CCN(c2ccccc2)CC1 [Compound 1k, (E)-4-Phenyl-N-(2,4,5-trimethoxybenzyliden)piperazin-1-amine]
- inhibition at 200 µM (murine ATGL): 43%
- melting point: 153 to 156 °C

Compound: COc1cc(/C=N/N2CCN(c3ccccc3)CC2)cc(OC)c1OC [Compound 1l, (E)-4-Phenyl-N-(3,4,5-trimethoxybenzylidene)piperazin-1-amine]
- inhibition at 200 µM (murine ATGL): 41%
- melting point: 93 to 98 °C

Compound: Fc1ccc(/C=N/N2CCN(c3ccccc3)CC2)cc1F [Compound 1m, (E)-N-(3,4-Difluorobenzylidene)-4-phenylpiperazin-1-amine]
- inhibition at 200 µM (murine ATGL): 67%
- IC50 (murine ATGL): 75 µM
- melting point: 152 to 154 °C

Compound: Clc1ccc(/C=N/N2CCN(c3ccccc3)CC2)cc1Cl [Compound 1n, (E)-N-(3,4-Dichlorobenzylidene)-4-phenylpiperazin-1-amine]
- inhibition at 200 µM (murine ATGL): 20%
- biological activity against ATGL (in words) (murine ATGL): inactive
- melting point: 176 to 178 °C

Compound: Clc1ccc(/C=N/N2CCN(c3ccccc3)CC2)c(Cl)c1 [Compound 1o, (E)-N-(2,4-Dichlorobenzylidene)-4-phenylpiperazin-1-amine]
- inhibition at 200 µM (murine ATGL): 42%
- melting point: 113 to 115 °C

Compound: O=[N+]([O-])c1ccccc1/C=N/N1CCN(c2ccccc2)CC1 [Compound 1p, (E)-N-(2-Nitrobenzylidene)-4-phenylpiperazin-1-amine]
- inhibition at 200 µM (murine ATGL): 60%
- melting point: 103 to 106 °C

Compound: Brc1ccccc1/C=N/N1CCN(c2ccccc2)CC1 [Compound 1q, (E)-N-(2-Bromobenzylidene)-4-phenylpiperazin-1-amine]
- inhibition at 200 µM (murine ATGL): 73%
- melting point: 88 to 90 °C

Compound: N#Cc1ccc(/C=N/N2CCN(c3ccccc3)CC2)cc1 [Compound 1s, (E)-4-((4-Phenylpiperazin-1-ylimino)methyl)benzonitrile]
- inhibition at 200 µM (murine ATGL): 76%
- IC50 (murine ATGL): 50 µM

Compound: Cc1ccc(/C=N/N2CCN(c3ccccc3)CC2)cc1 [Compound 1t, (E)-N-(4-Methylbenzylidene)-4-phenylpiperazin-1-amine]
- inhibition at 200 µM (murine ATGL): 22%
- biological activity against ATGL (in words) (murine ATGL): inactive
- melting point: 184 to 186 °C

Compound: CN(C)c1ccc(/C=N/N2CCN(c3ccccc3)CC2)cc1 [Compound 1u, (E)-N-(4-(Dimethylamino)benzylidene)-4-phenylpiperazin-1-amine]
- inhibition at 200 µM (murine ATGL): 5%
- melting point: 190 °C (dec.)

Compound: CC(=O)Nc1ccc(/C=N/N2CCN(c3ccccc3)CC2)cc1 [Compound 1v, (E)-N-(4-((4-Phenylpiperazin-1-ylimino)methyl)phenyl)acetamide]
- inhibition at 200 µM (murine ATGL): 14%

Compound: CN(CCO)c1ccc(/C=N/N2CCN(c3ccccc3)CC2)cc1 [Compound 1w, (E)-2-(Methyl(4-((4-phenylpiperazin-1-ylimino)methyl)phenyl)amino)ethanol]
- inhibition at 200 µM (murine ATGL): 5%

Compound: C(=N\N1CCN(c2ccccc2)CC1)/c1ccc2c(c1)OCO2 [Compound 1x, (E)-N-(Benzo[d][1,3]dioxol-5-ylmethylen)-4-phenylpiperazin-1-amine]
- inhibition at 200 µM (murine ATGL): 64%
- melting point: 125 to 129 °C

Compound: C(=N\N1CCN(c2ccccc2)CC1)/c1ccc2c(c1)OCCO2 [Compound 1y, (E)-N-((2,3-Dihydrobenzol[b][1,4]dioxin-6-yl)methylen)-4-phenylpiperazin-1-amine]
- inhibition at 200 µM (murine ATGL): 27%
- melting point: 186 to 187 °C

Compound: O=c1[nH]c2ccc(/C=N/N3CCN(c4ccccc4)CC3)cc2[nH]1 [Compound 1z, (E)-5-((4-Phenylpiperazin-1-ylimino)methyl)-1H-benzo[d]imidazol-2(3H)-one]
- inhibition at 200 µM (murine ATGL): 16%
- melting point: 320 to 330 °C (dec.)

Compound: CCCC/C=N/N1CCN(c2ccccc2)CC1 [Compound 2a, (E)-N-Pentyliden-4-phenylpiperazin-1-amine]
- inhibition at 200 µM (murine ATGL): 12%

Compound: CCC/C=C/C=N/N1CCN(c2ccccc2)CC1 [Compound 2b, (E)-N-((E)-Hex-2-enyliden)-4-phenylpiperazin-1-amine]
- inhibition at 200 µM (murine ATGL): 12%
- melting point: 48 °C

Compound: C(=N\N1CCN(c2ccccc2)CC1)/C1CCCCC1 [Compound 2c, (E)-N-(Cyclohexylmethylen)-4-phenylpiperazin-1-amine]
- inhibition at 200 µM (murine ATGL): 49%
- melting point: 69 to 71 °C

Compound: C1=C(/C=N/N2CCN(c3ccccc3)CC2)CCCC1 [Compound 2d, (E)-N-(Cyclohexenylmethylen)-4-phenylpiperazin-1-amine]
- inhibition at 200 µM (murine ATGL): 58%
- biological activity against ATGL (in words) (murine ATGL): moderate activity
- melting point: 118 to 120 °C

Compound: C(=N\N1CCN(c2ccccc2)CC1)/c1ccccn1 [Compound 2e, (E)-4-Phenyl-N-(pyridine-2-ylmethylen)piperazin-1-amine]
- inhibition at 200 µM (murine ATGL): 16%
- melting point: 117 to 119 °C

Compound: C(=N\N1CCN(c2ccccc2)CC1)/c1cccnc1 [Compound 2f, (E)-4-Phenyl-N-(pyridine-3-ylmethylen)piperazin-1-amine]
- inhibition at 200 µM (murine ATGL): 46%
- melting point: 111 to 113 °C

Compound: C(=N\N1CCN(c2ccccc2)CC1)/c1ccncc1 [Compound 2g, (E)-4-Phenyl-N-(pyridine-4-ylmethylen)piperazin-1-amine]
- inhibition at 200 µM (murine ATGL): 60%
- biological activity against ATGL (in words) (murine ATGL): moderate activity
- melting point: 156 to 158 °C

Compound: C(=N\N1CCN(c2ccccc2)CC1)/c1ccc2ccccc2c1 [Compound 2h, (E)-N-(Naphthalene-2-ylmethylen)-4-phenylpiperazin-1-amine]
- inhibition at 200 µM (murine ATGL): < 1%
- melting point: 195 to 198 °C (dec.)

Compound: C(=N\N1CCN(c2ccccc2)CC1)/c1ccc2ccccc2n1 [Compound 2i, (E)-4-Phenyl-N-(quinoline-2-ylmethylen)-piperazin-1-amine]
- inhibition at 200 µM (murine ATGL): 8%
- melting point: 210 to 212 °C

Compound: C(=N\N1CCN(c2ccccc2)CC1)/c1cccc2ccccc12 [Compound 2j, (E)-N-(Naphthalene-1-methylen)-4-phenylpiperazin-1-amine]
- inhibition at 200 µM (murine ATGL): 49%
- melting point: 118 °C

Compound: Oc1ccc(/C=N/N2CCN(c3ccncc3)CC2)c(O)c1 [Compound 3a, (E)-4-((4-(Pyridine-4-yl)piperazin-1-ylimino)methyl)benzene-1,3-diol]
- inhibition at 200 µM (murine ATGL): 19%
- melting point: 270 to 273 °C (dec.)

Compound: Oc1ccc(/C=N/N2CCN(c3ccc(F)cc3)CC2)c(O)c1 [Compound 3b, (E)-4-((4-(4-Fluorophenyl)piperazin-1-ylimino)methyl)benzene-1,3-diol]
- inhibition at 200 µM (murine ATGL): 78%
- IC50 (murine ATGL): 50 µM
- melting point: 176 to 178 °C

Compound: Cc1cccc(N2CCN(/N=C/c3ccc(O)cc3O)CC2)c1 [Compound 3c, (E)-4-((4-m-Tolylpiperazin-1-ylimino)methyl)benzene-1,3-diol]
- inhibition at 200 µM (murine ATGL): 44%

Compound: Oc1ccc(/C=N/N2CCCN(c3ccccc3)CC2)c(O)c1 [Compound 3j, (E)-4-((4-Phenyl-1,4-diazepan-1-ylimino)methyl)benzene-1,3-diol]
- inhibition at 200 µM (murine ATGL): 87%

Compound: COc1ccc(C(=O)NN2CCN(c3ccccc3)CC2)cc1OC [Compound 10, 3,4-Dimethoxy-N-(4-phenylpiperazin-1-yl)benzamide]
- inhibition at 200 µM (murine ATGL): 38%
- biological activity against ATGL (in words) (murine ATGL): inactive

Compound: (E)-3-((4-Phenylpiperazin-1-ylimino)methyl)benzonitrile [Compound 1r]
- I200 (%) (murine ATGL): 60%
- IC50 (%) (murine ATGL): 120

Compound: (E)-4-Phenyl-N-(4-propoxybenzylidene)piperazin-1-amine [Compound 1i]
- I200 (%) (murine ATGL): 14%
- IC50 (%) (murine ATGL): >200

Compound: (E)-N-(4-Phenoxybenzylidene)-4-phenylpiperazin-1-amine [Compound 1j]
- I200 (%) (murine ATGL): 24%
- IC50 (%) (murine ATGL): >200
